Like-named read-outs stand apart in the source and are kept apart here.
Tests used:
[1] = MTT cytotoxicity assay, normal hepatic cell line HL-7702; format: cell-based; conditions: HL-7702 normal hepatic cells, human normal hepatic immortal cell line, drug exposure 48 h, mean ± SD (n = 3), read-out: Cytotoxic activity (IC50) HL-7702
Procedure: (§1) HeLa, BGC823, A-549, MCF-7 and HT-7702 cell lines were obtained from the ATCC. […] Tumor cells (3500–13,000) were seeded into 96-well microtest plates in 100 μL of culture medium per well, incubated for 48 h in the presence or absence of test compounds (8 different concentrations ranging from 100 to 0.01 μg/mL). For quantitative estimation of cytotoxicity, the (MTT) method was used, essentially performed as described previously. Briefly, cells were washed twice with PBS, fixed for 15 min in 1% glutaraldehyde solution, rinsed twice in PBS, and stained in 0.5% MTT solution for 4 h at 37 °C. […] The initial seeding densities varied among the cell lines to ensure a final absorbance reading in control (untreated) cultures within the range of 0.6–0.8 A492 units. Drug exposure was carried out for 2 days, and the IC50 value, i.e., the drug concentration that decreased the absorbance by 50%, was extrapolated from dose-response data. Each test was performed in triplicate, and the absorbance readings between the triplicates varied by no more than 10%.

A549 = experiment: MTT cytotoxicity assay, A549; format: cell-based; conditions: mean ± SD (n = 3), read-out: Cytotoxic activity (IC50) A549
Procedure: as §1

MCF-7 = experiment: MTT cytotoxicity assay, MCF-7; format: cell-based; conditions: mean ± SD (n = 3), read-out: Cytotoxic activity (IC50) MCF-7
Procedure: as §1

HeLa cells [2] = experiment: Cell cycle analysis by flow cytometry (PI); format: cell-based; conditions: for Effect on HeLa cell cycle: 0.1, 1.0, 5.0 μM, 6, 12, 24, 48 h; for Ratio of cell cycle arrest (of total cells) / Total cell cycle arrest percentage (right peak of histogram) / Percentage of cell cycle arrest (right peak of histogram): HeLa; for Ratio of cell cycle arrest (of total cells): 0.1 μM, 6, 12, 24 and 48 h; for Total cell cycle arrest percentage (right peak of histogram) / Percentage of cell cycle arrest (right peak of histogram): 5.0 μM; for Total cell cycle arrest percentage (right peak of histogram): 48 h; for Percentage of cell cycle arrest (right peak of histogram): 12 h
Procedure: The HeLa cell line was used for cell cycle analysis. Progression through the cell cycle was assessed by flow cytometry DNA determination with Propidium Iodide (PI). […] Flow cytometric analysis was performed using a BD accur C6 flow cytometer. Analysis was with Mod FIT software.

BGC-823 = experiment: MTT cytotoxicity assay, BGC-823; format: cell-based; conditions: mean ± SD (n = 3), read-out: Cytotoxic activity (IC50) BGC-823
Procedure: as §1

HeLa = experiment: MTT cytotoxicity assay, HeLa; format: cell-based; conditions: drug exposure 48 h, mean ± SD (n = 3), read-out: Cytotoxic activity (IC50) HeLa
Procedure: as §1

HeLa cells [3] = experiment: Annexin V-FITC/PI apoptosis assay; conditions: 0.1 μM, 6, 12, 24 and 48 h
Procedure: The HeLa cell line was used for cell apoptosis. Cells (20000 per mL) were incubated with several concentrations of the compounds or drugs for 6–48 h, and incubated in DMEM medium supplemented with 12% fetal calf serum (FCS), 2 mM L -glutamine, and 100 mg/L penicillin G and 100 mg/L streptomycin at 37 °C and 5% CO2. The cells were washed with PBS twice, centrifuged at 206 g for 5 min, and 5–10[5] cells were collected. Binding buffer suspension (500 μL) was added to the cells, and then 5 μL of the FITC-Annexin V mix was added. Next, 10 μL of the PI mix was added, and the suspension was mixed and kept at room temperature for 30 min in the dark. Analysis was with a BD accur C6 flow cytometer.

[4] = system: BimEL, ATR, caspase 3, caspase 8, caspase 9, PARP in HeLa cells; experiment: Western blot analysis of apoptosis proteins; format: cell-based; conditions: 24 h treatment; for Extent of compound-induced BimEL / Extent of compound-induced PARP / Extent of compound-induced caspase 3 / Extent of compound-induced caspase 9 / Extent of compound-induced ATR: 5 μM, untreated control 0%, etoposide-induced activation 100%
Procedure: For electrophoresis, the proteins were separated by sodium dodecyl sulfate–polyacrylamide gel electro-phoresis (SDS–PAGE). The proteins were then transferred to a nitrocellulose membrane, which was blocked with 5% skimmed milk in phosphate buffered saline Tween-20 (PBST). A specific primary antibody was added to bind the target proteins for either 1 h at room temperature or overnight at 4 °C. A horseradish peroxidase (HRP) conjugated secondary antibody was added to the membrane after the primary antibody was washed off. All signals were detected after the HRP was activated by enhanced chemiluminescence. The band intensities of Western results were quantitated with the Image Quant program (Molecular Dynamics Inc.), analyzed and graphed. The untreated controls and the etoposideinduced activation of signaling molecules were taken as 0% and 100%, respectively. Statistic analysis was performed with the uni-polar, paired Student t-test. Data were considered significant when P value was less than 0.05.

[5] = system: microtubules in HeLa cells; experiment: Immunofluorescence of cellular microtubules; format: cell-based; conditions: for Cellular depolymerization of microtubules: 12 and 24 h, compared with negative control 0.1% DMSO; for Appearance of microtubules after treatment: immunofluorescence
Procedure: Cells (20000 per mL) were plated a onto 6-well tissue culture plates containing 12 mm round coverslips, cultured overnight, and then treated with different drugs at […] concentrations or drug vehicle (0.1% DMSO) for 12 h and 24 h. Attached cells were permeabilized. Cytoskeletons were incubated with α-tubulin, washed twice, and incubated with FITC goat anti-mouse immunoglobulins. The coverslips were washed, and 1 μg/mL DAPI to stain chromatin was added. The mixture was incubated for 30 min. After the samples were washed, they were examined and photographed using an Olympus epifluorescence microscope. The images were recorded with a Perkin Elmer camera.

topoisomerase II = experiment: kDNA decatenation assay; format: biochemical; conditions: 100 μM
Procedure: The decatenation of kDNA was assayed according to TopoGen protocol in order to determine topoisomerase II activity. The substrate kDNA (200 ng) and 100 μM drugs were combined in assay buffer and incubated for 10 min on ice. Next, 1 U of topoisomerase II was added and the reaction was allowed to proceed for 15 min at 37 °C. The reaction was quenched via the addition of loading buffer (1% sarkosyl, 0.025% bromophenol blue, and 5% glycerol) and was then analyzed by electrophoresis on a 1% agarose gel in TBE buffer for 30 min at 130 V. The gel was stained with SYBR Green I (Molecular Probes) for 30 min and was visualized under UV illumination and photographed on a Tanon Imager.

tubulin = experiment: Tubulin assembly centrifugation assay in vitro; format: biochemical; conditions: for Inhibition of microtubule polymerization compared with colchicine: colchicine as positive control
Procedure: Ligands were dissolved in DMSO at 20 mM and kept at −80 °C. Work solutions were done in DMSO and kept at −20 °C. The 50% inhibitory ligand concentration of tubulin assembly was determined with a centrifugation assay. Tubulin was equilibrated prior to use in 3.4 M glycerol, 1 mM EGTA, 0.1 mM GTP, pH 7.0, buffer through a 25 cm × 0.9 cm Sephadex G-25 column. Aggregates were removed by a centrifugation at 90000 g × 10 min in a TLA 120 rotor at 4 °C in an Optima TLX centrifuge. Tubulin concentration was determined as described by Andreu^42. Tubulin was kept at 4 °C, and 0.9 mM GTP and 6 mM MgCl2 were added to the sample. The solution was distributed in 200 μL polycarbonate tubes for the TL100 rotor. Growing concentrations of the ligands ranging from 0 to 25 μM were added to the samples (DMSO content of the samples, 2.5%), which were incubated for 30 min at 37 °C. Microtubules were separated from unassembled tubulin by a centrifugation at 90000 g × 10 min in a TLA100 rotor at 37 °C in an Optima TLX centrifuge. The supernatant containing unassembled tubulin was carefully collected and the microtubule pellet resuspended in 10 mM sodium phosphate buffer, pH 7.0, containing 1% SDS. Both supernatants and pellets were diluted 1:5 in the same buffer, and tubulin concentrations were measured fluorometrically (λexc = 280; λems = 323) using tubulin standards calibrated spectrophotometrically. The 50% inhibitory ligand concentration of tubulin assembly was determined with a centrifugation assay that measured the decrease in the concentrations of microtubules assembled in the presence of different concentrations of the compound.

HL-7702 = experiment: MTT cytotoxicity assay, normal hepatic cell line HL-7702; format: cell-based; conditions: human normal hepatic immortal cell line, drug exposure 48 h, mean ± SD (n = 3), read-out: Cytotoxic activity (IC50) HL-7702
Procedure: as §1

[6] = Homo sapiens, A549, drug exposure 48 h
[7] = Homo sapiens, MCF7, drug exposure 48 h
[8] = Homo sapiens, BGC-823, drug exposure 48 h

SMILES	IC50 at 48 h [1]	IC50 (A549; [6])	IC50 (MCF-7; [7])	Effect on HeLa cell cycle (HeLa cells [2])	Ratio of cell cycle arrest (of total cells) (HeLa cells [2])	IC50 (BGC-823; [8])	IC50 (HeLa; Homo sapiens, HeLa, 48 h)	Ratio of apoptotic Hela cells (of total cells) (HeLa cells [3])	Extent of compound-induced PARP [4]	Extent of compound-induced caspase 3 [4]	Extent of compound-induced caspase 9 [4]	Cellular depolymerization of microtubules [5]	Total cell cycle arrest percentage (right peak of histogram) (HeLa cells [2])	other results
COc1ccc(N[C@@H]2c3cc4c(cc3[C@@H](c3cc(OC)c(O)c(OC)c3)[C@H]3C(=O)OC[C@@H]32)OCO4)cc1 [Compound 12′]	28.6 ± 2.35 µM	22.3 ± 1.21 µM	18.8 ± 0.24 µM	arrested at the G2/M phase	less than 10%	36 ± 3.21 µM	24.46 ± 0.16 µM	less than 15%	–	–	–	–	–	–
COc1ccc(N[C@@H]2c3cc4c(cc3[C@@H](c3cc(OC)c(OC)c(OC)c3)[C@H]3C(=O)OC[C@@H]32)OCO4)cc1Br [Compound 17, 4β-NH-(3-bromide-4-methoxyaniline)-4-deoxy-podophyllotoxin]	62.4 ± 1.96 µM	9.08 ± 0.26 µM	10.1 ± 0.18 µM	arrested at the G2/M phase	less than 10%	7.91 ± 0.59 µM	–	less than 15%	27%	37%	0%	able to cause cellular depolymerization of microtubules	86.5%	Extent of compound-induced BimEL [4]: 15%
COc1ccc(N[C@@H]2c3cc4c(cc3[C@@H](c3cc(OC)c(O)c(OC)c3)[C@H]3C(=O)OC[C@@H]32)OCO4)cc1Br [Compound 17′, 4β-NH-(3-bromide-4-methoxyaniline)-4-deoxy-4′-demethylepipodophyllotoxin]	91.8 ± 1.57 µM	–	6.51 ± 0.37 µM	arrested at the G2/M phase	–	5.63 ± 0.12 µM	–	–	52%	43%	34%	–	–	Inhibition of the catalytic activity of Topo II (kDNA decatenation) (topoisomerase II): completely inhibited; Extent of compound-induced ATR [4]: 26%
COc1ccc(N[C@@H]2c3cc4c(cc3[C@@H](c3cc(OC)c(OC)c(OC)c3)[C@H]3C(=O)OC[C@@H]32)OCO4)cc1Cl [Compound 18, 4β-NH-(3-chloride-4-methoxyaniline)-4-deoxy-podophyllotoxin]	79 ± 2.33 µM	3.72 ± 0.29 µM	3.54 ± 0.14 µM	arrested at the G2/M phase	less than 10%	3.52 ± 0.23 µM	–	less than 15%	84%	56%	50%	able to cause cellular depolymerization of microtubules	94.4%	Extent of compound-induced BimEL [4]: 58%; BimEL level (pro-apoptotic protein) [4]: significantly increased; Inhibition of microtubule polymerization compared with colchicine (tubulin): effects higher than colchicine; Appearance of microtubules after treatment [5]: greatly disrupted and disappeared
COc1ccc(N[C@@H]2c3cc4c(cc3[C@@H](c3cc(OC)c(O)c(OC)c3)[C@H]3C(=O)OC[C@@H]32)OCO4)cc1Cl [Compound 18′, 4β-NH-(3-chloride-4-methoxyaniline)-4-deoxy-4′-demethylepipodophyllotoxin]	127.4 ± 0.46 µM	3.04 ± 0.23 µM	3.18 ± 0.51 µM	arrested at the G2/M phase	less than 10%	1.77 ± 0.23 µM	1.97 ± 0.16 µM	less than 15%	54%	69%	35%	–	–	Extent of compound-induced ATR [4]: 46%
COc1ccc(NC2c3cc4c(cc3C(c3cc(OC)c(OC)c(OC)c3)C3C(=O)OCC23)OCO4)cc1F (stereo not drawn) [Compound 19, 4β-NH-(3-fluoro-4-methoxyaniline)-4-deoxy-podophyllotoxin]	–	–	–	arrested at the G2/M phase	less than 10%	–	–	less than 15%	–	–	–	able to cause cellular depolymerization of microtubules	96.2%	BimEL level (pro-apoptotic protein) [4]: significantly increased; IC50 (HL-7702): 55.4 ± 0.64 µM; GI50 (tubulin; centrifugation assay, ligand 0 to 25 μM, 30 min at 37 °C, read-out: GI50, inhibition of microtubule polymerization (tubulin assembly)): < 1 µM; Inhibition of microtubule polymerization compared with colchicine (tubulin): effects higher than colchicine; IC50 (A549; drug exposure 48 h): 1.76 ± 0.07 µM; IC50 (MCF-7; drug exposure 48 h): 2.01 ± 0.21 µM; Appearance of microtubules after treatment [5]: greatly disrupted and disappeared; Percentage of cell cycle arrest (right peak of histogram) (HeLa cells [2]): 83.0%; IC50 (BGC-823; drug exposure 48 h): 1.61 ± 0.11 µM; IC50 (HeLa): 0.72 ± 0.08 µM
COc1ccc(N[C@@H]2c3cc4c(cc3[C@@H](c3cc(OC)c(O)c(OC)c3)[C@H]3C(=O)OC[C@@H]32)OCO4)cc1F [Compound 19′, 4β-NH-(3-fluoro-4-methoxyaniline)-4-deoxy-4′-demethylepipodophyllotoxin]	188 ± 7.33 µM	1.2 ± 0.25 µM	1.32 ± 0.24 µM	arrested at the G2/M phase	less than 10%	0.4 ± 0.07 µM	0.56 ± 0.12 µM	less than 15%	–	–	–	–	–	Percentage of cell cycle arrest (right peak of histogram) (HeLa cells [2]): 84.9%
